1 compound from article PMC11137182, “Selective and brain-penetrant ACSS2 inhibitors target breast cancer brain metastatic cells” (Frontiers in Pharmacology, 2024) can be followed below.

Assay [1] deals with MDA-MB-231BR cells. Briefly: Clonogenic survival assay. In kind it is cell-based. The settings on record: 100 μM, 48 h treatment, 10 days growth. The procedure: Triple-negative brain trophic cells MDA-MB-231BR and 4T1BR cells were a kind gift from Dr. Patricia Steeg (Center for Cancer Research, National Cancer Institute) ([Achrol et al., 2019]). Both cell lines were cultured in DMEM supplemented with 10% fetal bovine serum (FBS), 5% 10,000 Units/mL Penicillin-10,000 μg/mL Streptomycin, and 5% 200 mM L-Glutamine. For crystal violet staining, 5 × 10^4 cells were plated and subjected to the treatments as described in the individual figures and then stained with 0.5% crystal violet prepared in a 1:1 methanol-water solution followed by PBS washes. ACSS2 inhibitors were dissolved in 100% ultra-pure DMSO.
To assess clonogenic survival, 1 × 10^5 cells were seeded into a 6-well plate until 70%–80% confluency and treated for 48 h with analogs at 100 uM (unless otherwise stated in the figure legend). After 48 h, cells were trypsinized and counted using hemocytomer, and 1 × 10^4 cells per treatment were plated into a 6-well plate with fresh culture medium and allowed to grow for 10 days. Following 10-day incubation, cells were washed twice with PBS, stained with crystal violet for 30 min, and washed with dH2O twice. Colonies >50mircons were counted. For crystal violet staining, 0.5% crystal violet was prepared in a 1:1 methanol-water solution.

For a further assay, the target named is T1, hACSS1 (Homo sapiens, UniProt Q9NUB1).
T1 construct: purchased MyBioSource (www.mybiosource.com)
T1 sequence (Q9NUB1 38-689): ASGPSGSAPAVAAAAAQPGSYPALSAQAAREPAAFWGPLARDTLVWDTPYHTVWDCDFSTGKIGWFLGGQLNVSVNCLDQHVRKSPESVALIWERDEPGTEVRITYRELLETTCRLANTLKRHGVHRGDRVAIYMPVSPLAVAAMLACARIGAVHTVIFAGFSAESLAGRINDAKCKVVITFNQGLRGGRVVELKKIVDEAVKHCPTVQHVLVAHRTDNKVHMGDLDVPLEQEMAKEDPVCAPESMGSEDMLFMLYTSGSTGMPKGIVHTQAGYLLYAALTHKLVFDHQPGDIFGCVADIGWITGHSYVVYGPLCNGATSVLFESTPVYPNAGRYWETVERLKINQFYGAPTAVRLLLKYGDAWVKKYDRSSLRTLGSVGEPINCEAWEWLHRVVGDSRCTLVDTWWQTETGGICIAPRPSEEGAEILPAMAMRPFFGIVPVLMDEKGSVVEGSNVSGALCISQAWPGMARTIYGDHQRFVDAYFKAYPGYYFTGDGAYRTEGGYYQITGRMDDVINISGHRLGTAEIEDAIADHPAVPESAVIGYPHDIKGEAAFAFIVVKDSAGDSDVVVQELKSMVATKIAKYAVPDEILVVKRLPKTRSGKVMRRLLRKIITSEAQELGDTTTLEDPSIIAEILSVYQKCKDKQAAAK
Nature of the assay: SPR binding to immobilized hACSS1. The settings on record: single concentration 25μM injection. Here is the method: All binding assays were performed on a ProteOn XPR36 SPR Protein Interaction Array System (Bio-Rad Laboratories, Hercules, CA, United States). The instrument temperature was set at 25°C for all kinetic analyses. ProteOn GLH sensor chips were preconditioned with two short pulses each (10 s) of 50 mM NaOH, 100 mM HCl, and 0.5% sodium […]. Then, the system was equilibrated with running buffer (1x PBS pH 7.4, 3% DMSO, and 0.005% polysorbate 20). The surface of a GLH sensor chip was activated with a 1:100 dilution of a 1:1 mixture of 1-ethyl-3-(3-dimethylaminopropyl) carbodiimide hydrochloride (0.2 M) and sulfo-N-hydroxysuccinimide (0.05 M). Immediately after chip activation, the human ACSS2 or hACSS1 proteins were prepared at a concentration of 10 μg/mL in 10 mM sodium acetate, pH 5.5, and injected across ligand flow channels for 5 min at a flow rate of 30 μL/min. Then, after unreacted protein had been washed out, excess active ester groups on the sensor surface were capped by a 5 min injection of 1M ethanolamine HCl (pH 8.0) at a flow rate of 5 μL/min. […] Data were analyzed using the ProteOn Manager Software version 3.0 (Bio-Rad). […]
On the technique in general: Surface plasmon resonance follows binding to a sensor surface in real time, without labels.

For the next assay, the system named is 4T1BR cells. Briefly: Acetyl-CoA quantification by LC-HRMS. The format is cell-based. Particulars: 100 μM, 48 hours. Here is the method: (§1) Cells were grown to ∼80% confluency in a 10-cm dish in normal growth medium, 48 h prior to collecting cells, aspirate media and replace with fresh growth media and drug was added at 100 μM. To collect cells, media was aspirated and 1 mL of 10% trichloroacetic acid (w/v) in water was added directly to the cells. Cells were scraped and transferred into a 1.7 mL Eppendorf tube and stored at −80 until labeling. […] Lysates were centrifuged 17,000 g for 10 min at 4°C and supernatant was transferred to a deep-well 96-well plate for loading in a Tomtec Quadra4 liquid handling workstation. On the liquid handling workstation, lysates were applied to an Oasis HLB 96-well elution plate (30 mg of sorbent per well) pre-conditioned and equilibrated with 1 mL of methanol and 1 mL of water, respectively. After de-salting with 1 mL of water, analytes were eluted into a deep-well 96-well plate using 1 mL of 25 mM ammonium acetate in methanol. Eluent was evaporated dried under nitrogen gas. The dried LC-HRMS samples were resuspended in 50 µL of 5% (w/v) sulfosalicylic acid in water. […] A modified gradient using solvent A (5 mM ammonium acetate in water), solvent B (5 mM ammonium acetate in 95:5 (v:v) acetonitrile: water) and solvent C (0.1% (v/v) formic acid in 80:20 (v:v) acetonitrile: water). Data was acquired using XCalibur 4.0 (Thermo Scientific) and analyzed using Tracefinder 5.1 (Thermo Scientific).

The subject of assay [2] is MDA-MB-231BR cells. Briefly: Acetyl-CoA quantification by LC-HRMS. In kind it is cell-based. Particulars: 100 μM, 48 h. Here is the method: as §1

Structures are written as SMILES.

`N[C@H](C(=O)N1CCCC(c2ccccc2)(c2ccccc2)C1)C1CC1` [AD-8007]: the clonogenic survival result in the assay with MDA-MB-231BR cells [1] is recorded as “significant reduction in clonogenic survival”. Moreover, the “binding to hACSS1 (specificity)” value at hACSS1 was “specifically bind ACSS2 and not the mitochondrial isoform hACSS1”. In addition, the acetyl-CoA levels entry with 4T1BR cells and in the assay with MDA-MB-231BR cells [2] was “significantly reduced acetyl-CoA levels” each time.
